Source: PMC12136037, “Type II kinase inhibitors that target Parkinson’s disease–associated LRRK2” (Science Advances, 2025)
“And” between values parts separate entries of the source, which are not always exact repeats. Identical values can stand only once.

How the values were obtained:
[1] = biological target: T1, ~100 representative kinases (Homo sapiens, UniProt Q96GD4); test: DSF 100 kinase selectivity screen; assay type: binding; conditions: Protein AURKB; average of three replicates;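 note: compound tested at 20 µM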
T1 construct: Recombinant protein kinase domains with a concentration of 2 μM
T1 sequence (Q96GD4 whole entry, the tested form may be a part): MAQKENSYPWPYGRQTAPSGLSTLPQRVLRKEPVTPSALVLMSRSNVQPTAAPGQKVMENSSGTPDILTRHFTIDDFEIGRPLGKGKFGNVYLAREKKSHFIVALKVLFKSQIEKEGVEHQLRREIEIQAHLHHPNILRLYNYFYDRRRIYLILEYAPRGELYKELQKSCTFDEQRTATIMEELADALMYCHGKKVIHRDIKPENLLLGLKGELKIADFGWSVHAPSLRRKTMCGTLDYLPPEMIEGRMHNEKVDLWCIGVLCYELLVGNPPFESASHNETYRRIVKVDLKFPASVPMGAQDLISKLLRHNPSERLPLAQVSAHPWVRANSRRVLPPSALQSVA
How it was run: (§1)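 Each kinase domain, at 2 μM, is mixed with 20 μM test compound and SYPRO Orange in Hepes (20 mM, pH 7.5) with 500 mM NaCl. Temperature is then raised at 3°C/min and fluorescence-monitored unfolding yields the melting temperature change, ΔTm in degrees Celsius.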

LRRK2^RCKW = biological target: T2, LRRK2^RCKW (Homo sapiens, UniProt Q5S007); test: Biochemical LRRK2 activity assay (PhosphoSense, AssayQuant SOX peptide AQT0615); conditions: for IC50: LRRK2^RCKW kinase activity, in vitro; for normalized response (LRRK2 activity): normalized to 0% (no kinase) and 100% (no inhibitor) control, two singlicate columns per compound
T2 construct: LRRK2 R1327 to E2527; His6-Z-tag (TEV cleavable) (N, cleaved yes); host or cells: Sf9 insect cells (baculovirus)
T2 sequence (Q5S007 1327-2527): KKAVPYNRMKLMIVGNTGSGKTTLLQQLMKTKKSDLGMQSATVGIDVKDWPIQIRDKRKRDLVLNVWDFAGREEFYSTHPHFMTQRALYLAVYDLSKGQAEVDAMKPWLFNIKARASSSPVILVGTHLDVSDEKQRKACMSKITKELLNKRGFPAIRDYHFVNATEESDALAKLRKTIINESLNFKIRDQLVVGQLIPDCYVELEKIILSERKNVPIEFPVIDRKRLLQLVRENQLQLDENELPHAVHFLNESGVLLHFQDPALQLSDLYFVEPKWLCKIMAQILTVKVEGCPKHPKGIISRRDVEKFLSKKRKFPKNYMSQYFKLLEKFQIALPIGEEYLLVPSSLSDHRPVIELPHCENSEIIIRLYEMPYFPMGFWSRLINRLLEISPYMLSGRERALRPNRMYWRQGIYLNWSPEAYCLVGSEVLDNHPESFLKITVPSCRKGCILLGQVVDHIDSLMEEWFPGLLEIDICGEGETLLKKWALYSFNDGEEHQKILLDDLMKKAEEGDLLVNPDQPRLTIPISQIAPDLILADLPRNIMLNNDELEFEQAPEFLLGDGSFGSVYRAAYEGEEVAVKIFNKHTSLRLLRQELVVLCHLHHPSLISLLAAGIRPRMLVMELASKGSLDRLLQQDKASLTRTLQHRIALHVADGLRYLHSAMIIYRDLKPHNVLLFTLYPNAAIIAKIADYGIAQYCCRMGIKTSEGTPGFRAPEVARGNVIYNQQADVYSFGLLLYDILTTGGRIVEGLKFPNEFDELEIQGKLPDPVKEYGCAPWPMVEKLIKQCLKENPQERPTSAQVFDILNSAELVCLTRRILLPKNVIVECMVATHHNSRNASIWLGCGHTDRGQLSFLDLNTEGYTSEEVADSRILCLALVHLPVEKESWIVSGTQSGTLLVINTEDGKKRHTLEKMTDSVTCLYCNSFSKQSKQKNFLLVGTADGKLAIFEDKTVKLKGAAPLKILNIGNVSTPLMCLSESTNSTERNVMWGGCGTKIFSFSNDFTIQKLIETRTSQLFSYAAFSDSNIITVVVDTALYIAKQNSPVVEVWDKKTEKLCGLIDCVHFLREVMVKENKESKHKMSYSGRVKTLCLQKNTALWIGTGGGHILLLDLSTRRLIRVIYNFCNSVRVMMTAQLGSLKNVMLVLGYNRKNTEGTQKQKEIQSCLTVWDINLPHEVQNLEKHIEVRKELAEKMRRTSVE
How it was run: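 Controls lacked protein and compound (0%) or compound only (100%). IC50 derived by nonlinear regression of normalized response versus log[inhibitor].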

[2] = biological target: T3, ~100 representative kinases (Homo sapiens, UniProt Q02750); test: DSF 100 kinase selectivity screen; assay type: binding; conditions: protein MAP2K1; average of three replicates;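 note: compound tested at 20 µM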
T3 construct: Recombinant protein kinase domains with a concentration of 2 μM
T3 sequence (Q02750 whole entry, the tested form may be a part): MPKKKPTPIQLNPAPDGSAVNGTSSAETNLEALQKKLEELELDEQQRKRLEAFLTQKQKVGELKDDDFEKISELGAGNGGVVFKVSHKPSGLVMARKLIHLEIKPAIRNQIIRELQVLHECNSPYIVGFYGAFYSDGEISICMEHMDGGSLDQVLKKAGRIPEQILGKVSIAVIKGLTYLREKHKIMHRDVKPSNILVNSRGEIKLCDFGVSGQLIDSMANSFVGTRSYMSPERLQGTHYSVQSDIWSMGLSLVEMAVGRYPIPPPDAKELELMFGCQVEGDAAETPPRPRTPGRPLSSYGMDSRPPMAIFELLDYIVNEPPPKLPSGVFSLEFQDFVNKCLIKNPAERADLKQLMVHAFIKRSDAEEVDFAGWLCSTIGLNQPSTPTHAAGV
How it was run: as §1

| Structure (SMILES) | dTm [1] [K] | IC50 (LRRK2^RCKW) [nM] | normalized response (LRRK2 activity) (LRRK2^RCKW; log[inhibitor(mol)] -5.12494) | normalized response (LRRK2 activity) (LRRK2^RCKW; log[inhibitor(mol)] -5.60206) | normalized response (LRRK2 activity) (LRRK2^RCKW; log[inhibitor(mol)] -6.30103) | normalized response (LRRK2 activity) (LRRK2^RCKW; log[inhibitor(mol)] -6.90309) | normalized response (LRRK2 activity) (LRRK2^RCKW; log[inhibitor(mol)] -7.30103) | normalized response (LRRK2 activity) (LRRK2^RCKW; log[inhibitor(mol)] -7.60206) | normalized response (LRRK2 activity) (LRRK2^RCKW; log[inhibitor(mol)] -8.09691) | normalized response (LRRK2 activity) (LRRK2^RCKW; log[inhibitor(mol)] -8.61979) | normalized response (LRRK2 activity) (LRRK2^RCKW; log[inhibitor(mol)] -9.09691) | normalized response (LRRK2 activity) (LRRK2^RCKW; log[inhibitor(mol)] -9.39794) | normalized response (LRRK2 activity) (LRRK2^RCKW; log[inhibitor(mol)] -4.82391) | dTm [2] [K] |
| --- | --- | --- | --- | --- | --- | --- | --- | --- | --- | --- | --- | --- | --- | --- |
| Cc1ccc(C(=O)Nc2ccc(CN3CCN(C)CC3)c(C(F)(F)F)c2)cc1C#Cc1c[nH]c2ncnc(N3CCOCC3)c12 [Compound 1] | 1.01 | 756 ± 20 | 7.718% and 4.844% | 24.5327% and 23.4304% | 59.5875% and 59.3462% | 87.2332% and 86.1364% | 105.83% and 97.719% | 93.8691% and 88.2314% | 93.7155% and 94.1323% | 97.5599% and 105.43% | 94.6588% and 101.816% | 98.0974% and 115.57% |  |  |
| Cc1cc(NC(=O)C2(C(=O)Nc3cccc(-c4c[nH]c5ncnc(N6CCOCC6)c45)c3)CC2)ccc1F [Compound 20] |  | 110 ± 11 | -12.9576% and -4.07% | -8.508% and -7.489% |  | 42.2259% and 43.1588% | 74.6695% and 77.6217% | 88.2582% and 90.1977% | 89.9215% and 96.544% | 106.119% and 94.9298% | 105.603% and 97.4708% | 68.2188% and 102.467% | -5.58% and -14.6884% |  |
| COc1cc(NC(=O)C2(C(=O)Nc3cccc(-c4c[nH]c5ncnc(N6CCOCC6)c45)c3)CC2)ccc1F [Compound 21] |  | 331 ± 59 | -8.581% and -13.1049% | -3.229% and 0.9871% | 31.841% and 40.7652% | 74.4117% and 83.0044% | 89.3998% and 91.1429% | 98.2625% and 97.8145% | 90.8667% and 93.1069% | 91.1981% and 94.2547% | 94.6536% and 91.2165% | 100.092% and 102.338% |  |  |
| O=C(Nc1cccc(-c2c[nH]c3ncnc(N4CCOCC4)c23)c1)C1(C(=O)Nc2ccc(F)cc2F)CC1 [Compound 23] |  | 159 ± 0.2 | -19.0277% and -21.4214% | -16.2351% and -13.5898% | 3.675% and 3.246% | 59.976% and 57.9812% | 81.7768% and 85.349% | 93.6348% and 95.0771% | 95.5743% and 95.9609% | 101.288% and 95.0587% | 106.438% and 96.5808% | 103.437% and 104.087% | -26.6261% and -31.2355% |  |
| Cc1cc(F)ccc1NC(=O)C1(C(=O)Nc2cccc(-c3c[nH]c4ncnc(N5CCOCC5)c34)c2)CC1 [Compound 24] |  | 1190 ± 231 | 6.394% and 5.578% | 30.1593% and 37.3588% | 66.9115% and 76.4371% | 91.3884% and 99.1893% | 98.0109% and 87.3375% | 102.16% and 100.865% | 98.4037% and 99.8706% | 99.6435% and 101.436% |  | 101.258% and 60.2522% |  |  |
| CC(C)(C)c1cc(NC(=O)Nc2cccc(-c3c[nH]c4ncnc(N5CCOCC5)c34)c2)n(-c2ccc3ncccc3c2)n1 [Compound 28] |  | 59.7 ± 2.9 | -4.603% and -7.6443% | -5.899% and -7.93% | -0.5957% and -1.998% | 20.6807% and 19.3416% | 54.9087% | 83.9541% and 76.0062% | 102.755% and 100.691% | 109.195% and 109.069% | 110.935% and 112.883% | 72.3369% and 118.777% | 3.992% and -4.217% |  |
| COc1cc2c(Oc3ccc(NC(=O)C4(C(=O)Nc5ccc(F)cc5)CC4)cc3F)ccnc2cc1OCCCN1CCOCC1 [Foretinib, reference compound] |  |  | -8.307% and -10.693% | -1.8523% and 5.65% | 28.3235% and 31.8978% | 69.5315% and 73.0571% | 85.8697% and 90.8136% | 93.5528% and 93.9107% | 88.4499% and 91.6177% | 92.1788% and 92.8283% | 95.8547% and 84.8889% | 98.1654% and 60.9912% |  |  |
| CCNc1nc(Nc2cc(F)c(C(=O)N3CCOCC3)cc2OC)ncc1C(F)(F)F [GNE-7915] | -1.42 |  |  |  |  |  |  |  |  |  |  |  |  | 0.0455 |
| C[C@@H]1CN(c2cc(-c3n[nH]c4ccc(OC5(C)CC5)cc34)ncn2)C[C@H](C)O1 [MLi2] | -0.83 |  |  |  |  |  |  |  |  |  |  |  |  | -0.0332 |
| Cn1cc(-c2c[nH]c3ncnc(N4CCOCC4)c23)cc1C#N [PFE-360] | 2.36 |  |  |  |  |  |  |  |  |  |  |  |  | 0.65 |
| Cc1ccc(C(=O)Nc2ccc(CN3CCN(C)CC3)c(C(F)(F)F)c2)cc1C#Cc1cnc2cccnn12 [Ponatinib, reference compound] | 0.49 |  |  |  | 56.5539% and 57.6737% | 39.5492% and 29.1129% | 59.9414% and 56.1669% | 77.794% and 52.662% | 99.8669% and 100.13% | 102.911% | 103.335% and 101.393% | 103.789% and 105.568% |  |  |
